Source: patent US20260015339A1, “CALIX[4]ARENES WITH HIGH ANTICANCER ACTIVITY” (UNIVERSITE GRENOBLE ALPES, priority 2023, published 2026)

What was measured:
[1] = Cu^+ transport into liposomes with encapsulated BCS; settings: POPC/cholesterol 7:3 LUVs, calix[4]arene to lipid 1:1000, 50 μM copper gradient, F/F0 after 600 s
Method: The ability of the examples of calix[4]arenes of the invention and the comparative examples to be delivered into a lipidic bilayer membrane of a liposome from a solution and their capacity to then act as a transporter of Cu^+ was evaluated using bathocuproine disulphonate (hereafter abbreviated “BCS”) encapsulated in large unilamellar vesicles (LUVs, also referred to as liposomes) composed of 1-palmitoyl-2-oleoyl-sn-glycero-3-phosphocholine and cholesterol in a 7:3 ratio.
BCS is a fluorescent water soluble phenantroline derivative that can be used as fluorescent dye for the sensing of Cu^+ through the formation of a non-fluorescent 2:1 complex.
Stock solution of lipids were prepared using deacidified CHCl3 and stored in a freezer. CHCl3 was deacidified by passing through activated basic alumina. The lipids used to prepare the liposomes were 2-oleoyl-1-palmitoyl-sn-glycero-3-phosphocholine (POPC), (purity ≥99%) and cholesterol (purity of 95%). 50 mM sodium phosphate buffer were prepared with Millipore water at pH 7 (±0.1) by mixing the solution of the mono- and the di-protonated phosphate salts. The solution of the dye (BCS) was prepared at 0.5 mM concentration in phosphate buffer.
The lipids solutions were mixed in different ratios in a 5 mL round bottom flask. The POPC/cholesterol molar ratio was 7:3 in all experiments. The total amount of lipids per batch varied depending on the amount of liposomes solution required for the experiment. After mixing the lipid solutions in a round bottom flask, the chloroform was evaporated under a gentle air flow and the resulting lipid film was dried at high vacuum for at least an hour. 500 μL of the BCS solution in phosphate buffer and a magnetic stir bar were added to the flask. The flask was then sonicated for 30 seconds and placed under magnetic agitation for at least an hour. The solution was frozen with liquid nitrogen and heated back to room temperature with warm water ten times to form large unilamellar vesicles (LUVs). The liposome solution was extruded 29 times, using an extrusion kit equipped with a membrane with 200 nm pores. Subsequently, the solution was eluted with the buffer solution used for the experiment through a size exclusion column (Sephadex G-25) to remove the external BCS and then diluted with phosphate buffer to obtain a concentration of 0.4 mM in lipids.
Solutions of the calix[4]arenes were prepared at a concentration of 0.24 mM in DMSO and 5 μL of the solution was added 2 minutes before each transport measurement.
Alternatively, calix[4]arenes were pre-incorporated by combining the calix[4]arene (dissolved in chloroform) with the lipids prior to the evaporation of the chloroform to obtain a lipid film. The concentrations and volumes were chosen to obtain a calix[4]arene to lipid of 1:1000.
Fluorescence measurements were performed with a Horiba FluoroMax 4 spectrometer using a 4-faced quartz cuvette (10 mm×10 mm). For the Cu^+ transport assay, the excitation was set at 278 nm and emission was recorded at 393 nm. These values correspond to the excitation and emission maxima of BCS encapsulated inside LUVs.
The Cu^+ solutions added to the liposomes were obtained by dissolving Cu(MeCN)4BF4 in MeCN at 15.25 mM concentration. The copper solution was then diluted by a factor 5 in a phosphate buffer during the first 30 seconds of the experiment to reach a copper concentration of 3.05 mM. 50 μL of the diluted copper solution was added to 3 mL of liposomes, resulting in a copper gradient of 50 μM. The fluorescence level was monitored for 600 seconds after the addition of the copper solution.
For each run the initial plateau and the initial vertical drop (due to the binding of the exterior dye with Cu^+ and the dilution, 1-4 seconds after the addition) were removed. Then the signal was normalised by dividing the fluorescence values (F) by the value at t=0 second (F0). […]

[2] = system: A549 human lung cancer cells; assay: MTS cytotoxicity assay, combination with CuCl2, A549; settings: Homo sapiens, A549, 72 h, read-out: percentage of cell viability
Method: A549 human lung cancer cells were seeded in 96-well plates together with the calix[4]arene of the formula (2) and CuCl2. Cells were grown in RPMI-1640 supplemented with GlutaMAX™ (Gibco™) and fetal calf serum (FCS, 10%) treated with a broad range of concentrations of the calix[4]arene of the formula (2) or/and CuCl2 from Merck. After 72 hours of treatment, the cytotoxicity was measured by means of the IC50 value, using the kit “CellTiter 96R AQuous One Solution Cell Proliferation Assay (MTS)” from Promega™. Following 30 minutes of incubation with the MTS reagent, the endpoint measurements were done in triplicate at 485 nm, using a fluorescence plate reader.

[3] = system: H322 lung carcinoma cell line; assay: Inhibition of H322 cell proliferation (cell count); type: cell-based; settings: 3 μM, until 72 hours
Method: The inhibition of a H322 lung carcinoma cell line proliferation by the calix[4]arene of the formula (2) was determined by exposure of said H322 lung carcinoma cell line to a concentration of 3 μM of the calix[4]arene of the formula (2) until 72 hours. The absolute number of cells were counted in the treated and untreated conditions before treatment (N0) and after 72 hours (Nt).
The FIG. 3 is a graph showing: • the profile of the proliferation index Nt/N0 of the H322 cells after exposure with the calix[4]arene of the formula (2) with respect to the time (i.e. the curve entitled “calix[4]arene (2)”), • the profile of the proliferation index Nt/N0 of the H322 cells without any exposure with the calix[4]arene of the formula (2) with respect to the time (i.e. the curve entitled “untreated”).

[4] = system: H322 lung carcinoma cells; assay: MTS cytotoxicity assay on H322; type: cell-based; settings: NCI-H322; H322, 72 hours of treatment
Method: H322 lung carcinoma cells were seeded in 96-well plates together with the calix[4]arene of the formula (2). Cells were grown in RPMI-1640 supplemented with GlutaMAX™ (Gibco™) and fetal calf serum (FCS, 10%) and treated with a broad range of concentrations of the calix[4]arene of the formula (2). After 72 hours of treatment, the cytotoxicity was measured by means of the IC50 value, using the kit “CellTiter 96R AQuous One Solution Cell Proliferation Assay (MTS)” from Promega™. Following 30 minutes of incubation with the MTS reagent, the endpoint measurements were done in triplicate at 485 nm, using a fluorescence plate reader.
H322 lung carcinoma cells were seeded in 96-well plates together with the compound of the 2nd comparative example of the formula (XI). Cells were grown in RPMI-1640 supplemented with GlutaMAX™ (Gibco™) and fetal calf serum (FCS, 10%) and treated with a broad range of concentrations of the 2nd comparative example of the formula (XI). After 72 hours of treatment, the cytotoxicity was measured by means of the IC50 value, using the kit “CellTiter 96R AQuous One Solution Cell Proliferation Assay (MTS)” from Promega™. Following 30 minutes of incubation with the MTS reagent, the endpoint measurements were done in triplicate at 485 nm, using a fluorescence plate reader.
H322 lung carcinoma cells were seeded in 96-well plates together with the 1st comparative example of the formula (X). Cells were grown in RPMI-1640 supplemented with GlutaMAX™ (Gibco™) and fetal calf serum (FCS, 10%) and treated with a broad range of concentrations of the compound of the formula (X). After 72 hours of treatment, the cytotoxicity was measured by means of the IC50 value, using the kit “CellTiter 96R AQuous One Solution Cell Proliferation Assay (MTS)” from Promega™. Following 30 minutes of incubation with the MTS reagent, the endpoint measurements were done in triplicate at 485 nm, using a fluorescence plate reader.
H322 lung carcinoma cells were seeded in 96-well plates together with the tested calix[4]arenes. Cells were grown in RPMI-1640 supplemented with GlutaMAX™ (Gibco™) and fetal calf serum (FCS, 10%) and treated with a broad range of concentrations of the tested calix[4]arenes. After 72 hours of treatment, the cytotoxicity was measured by means of the IC50 value, using the kit “CellTiter 96R AQuous One Solution Cell Proliferation Assay (MTS)” from Promega™. Following 30 minutes of incubation with the MTS reagent, the endpoint measurements were done in triplicate at 485 nm, using a fluorescence plate reader.

[5] = system: A549 human lung cancer cells; assay: MTS cytotoxicity assay on A549; type: cell-based; settings: A549, 72 hours of treatment
Method: A549 human lung cancer cells were seeded in 96-well plates together with the calix[4]arene of the formula (2). Cells were grown in RPMI-1640 supplemented with GlutaMAX™ (Gibco™) and fetal calf serum (FCS, 10%) and treated with a broad range of concentrations of the calix[4]arene of the formula (2). After 72 hours of treatment, the cytotoxicity was measured by means of the IC50 value, using the kit “CellTiter 96R AQuous One Solution Cell Proliferation Assay (MTS)” from Promega™. Following 30 minutes of incubation with the MTS reagent, the endpoint measurements were done in triplicate at 485 nm, using a fluorescence plate reader.
A549 human lung cancer cells were seeded in 96-well plates together with the compound of the 2nd comparative example of the formula (XI). Cells were grown in RPMI-1640 supplemented with GlutaMAX™ (Gibco™) and fetal calf serum (FCS, 10%) and treated with a broad range of concentrations of the 2nd comparative example of the formula (XI). After 72 hours of treatment, the cytotoxicity was measured by means of the IC50 value, using the kit “CellTiter 96R AQuous One Solution Cell Proliferation Assay (MTS)” from Promega™. Following 30 minutes of incubation with the MTS reagent, the endpoint measurements were done in triplicate at 485 nm, using a fluorescence plate reader. […]

[6] = system: Non-malignant HaCaT cells; assay: MTS cytotoxicity assay on HaCaT; type: cell-based; settings: Homo sapiens, 72 hours of treatment
Method: Non-malignant HaCaT cells were seeded in 96-well plates together with the calix[4]arene of the formula (2). Cells were grown in RPMI-1640 supplemented with GlutaMAX™ (Gibco™) and fetal calf serum (FCS, 20%) and treated with a broad range of concentrations of the calix[4]arene of the formula (2). After 72 hours of treatment, the cytotoxicity was measured by means of the IC50 value, using the kit “CellTiter 96R AQuous One Solution Cell Proliferation Assay (MTS)” from Promega™. Following 30 minutes of incubation with the MTS reagent, the endpoint measurements were done in triplicate at 485 nm, using a fluorescence plate reader.

[7] = system: PC9 human lung cancer cells; assay: MTS cytotoxicity assay on PC9; type: cell-based; settings: PC9, 72 hours of treatment
Method: PC9 human lung cancer cells were seeded in 96-well plates together with the calix[4]arene of the formula (2). Cells were grown in RPMI-1640 supplemented with GlutaMAX™ (Gibco™) and fetal calf serum (FCS, 10%) and treated with a broad range of concentrations of the calix[4]arene of the formula (2). After 72 hours of treatment, the cytotoxicity was measured by means of the IC50 value, using the kit “CellTiter 96R AQuous One Solution Cell Proliferation Assay (MTS)” from Promega™. Following 30 minutes of incubation with the MTS reagent, the endpoint measurements were done in triplicate at 485 nm, using a fluorescence plate reader.
PC9 human lung cancer cells were seeded in 96-well plates together with the 2nd comparative example of the formula (XI). Cells were grown in RPMI-1640 supplemented with GlutaMAX™ (Gibco™) and fetal calf serum (FCS, 10%) and treated with a broad range of concentrations of the compound of the 2nd comparative example of the formula (XI). After 72 hours of treatment, the cytotoxicity was measured by means of the IC50 value, using the kit “CellTiter 96R AQuous One Solution Cell Proliferation Assay (MTS)” from Promega™. Following 30 minutes of incubation with the MTS reagent, the endpoint measurements were done in triplicate at 485 nm, using a fluorescence plate reader. […]

[8] = Cu^+ binding by 1H NMR titration; settings: 1H NMR titration with Cu(MeCN)4BF4, CD3CN/CDCl3 4/1, 298 K
Method: Binding abilities and complexation constants of the examples of calix[4]arenes of the present invention and the comparative examples with Cu^+ were evaluated by ^1H NMR titrations at 298 K using copper(I)tetrakis(acetronitrile)tetrafluoroborate.
For example, for each separate calix[4]arene a stock solution of the tested calix[4]arene was prepared in a CD3CN/CDCl3, 4/1 mixture. Using this stock solution, a Cu(MeCN)4BF4 solution was prepared and added by steps of 0.25 equivalent of copper(I) up until 1 equivalent and then by steps of 0.5 equivalent until a total of at least 2 equivalents. ^1H NMR spectra were recorded at a 400 MHz spectrometer at 298 K for the stock solutions of the calix[4]arenes and after each addition of Cu(MeCN)4BF4.
Calix[4]arenes for which a gradual change of the chemical shifts of the ^1H NMR signals (>0.1 ppm for at least one of the signals) was observed upon addition of up to 4-5 equivalents of Cu(MeCN)4BF4 were considered to show weak binding.

**Q.** Which results are given for `CCCOc1c2cccc1Cc1cccc(c1OCc1nccn1C)Cc1cccc(c1OCCC)Cc1cccc(c1OCc1nccn1C)C2` [(2)]?
**A.** Cu^+ transport [1]: Yes (means that a significant decrease of the fluorescence of encapsulated BCS was observed upon addition of Cu^+ to the liposomes (F/F0<0.65 after 600 s)); viability at 0.1 µM [2]: 102%; viability at 0.5 µM [2]: 96.4%; viability at 1 µM [2]: 79.9%; viability at 1.5 µM [2]: 52.2%; proliferation index Nt/N0 (FIG. 3) [3]: clearly inhibits the proliferation; IC50 [4]: 1840 nM; IC50 [5]: 1560 nM; IC50 [6]: 1050 nM; IC50 [7]: 2060 nM; Cu^+ binding [8]: Strong binding (means an affinity constant (Ka) equal or greater than 10^5 M^−1)
